Key:
lung cancer cells (A549) = assay: Culture plate invasion model, lung cancer cells (A549); type: cell-based, human; details: 50 μM and 100 μM, different times, vs untreated cells, p<0.05
Method: FIG. 5A. Invasive capacity of lung cancer cells (A549) in culture, in the absence (control, C) or presence of OHOD (2-hydroxy-9-cis-octadecenoic acid) at 50 μM (M50) and 100 μM (M100) and at different times.
FIG. 5B. Invasive capacity of lung cancer cells (A549) in culture, in the absence (control, C) or presence of OHOD (2-hydroxy-9-cis-octadecenoic acid) at 50 μM (M50) and 100 μM (M100) and at different times.
(§1) Furthermore, α-derivatives of cis-monounsaturated fatty acids are capable of inducing cadherin expression. Cadherin is a cellular adhesion protein. Cells expressing cadherin are often not displaced from their tissue location as they adhere to the surrounding cells. Tumour cells that lose the capacity to synthesise this protein can migrate from the tissue in which they were generated to other body tissues where they can develop a new tumour focus by the process known as metastasis. In treatments with α-derivatives of cis-monounsaturated the fatty acids, a significant increase in cadherin levels was observed (FIG. 4). The invasive capacity of cancer cells was also investigated in a culture plate invasion model. […] Then, an area of the culture dish is scraped and the number of cells invading this region at various times, in the presence and absence of the anti-metastasis compound is counted.

aortas of SHR rats = assay: Contractile response induced by noradrenalin in isolated aorta, organ bath; set-up: species or system rat; details: aortas pre-treated 60 minutes in organ bath at 37° C., vs vehicle, p<0.05
Method: FIG. 11. Effect of OHOD on the contractile response induced by noradrenalin (NA) in aortas of SHR rats. The logarithm of NA is shown on the horizontal axis and the concentration (g) is shown on the vertical axis. The aortas were treated with OHOD (filled circles) or vehicle (empty circles) for 60 minutes in an organ bath at 37° C. in Ringer medium with oxygen.
Atherosclerosis or arteriosclerosis is a pathology characterised by the loss of contractility of blood vessels. This loss is associated with diverse factors, among which is the formation of deposits on the vascular lumen giving rise to the proliferation of vascular cells, reduction of blood flow and vasoconstrictor and vasodilator responses to neurotransmitters (such as noradrenalin) and to hormones. In studies in isolated rat aorta in organ bath, it was shown that the contraction power of the aortic muscle in response to noradrenalin increased very markedly after pre-treatments with OHOD acid. In addition, all the compounds with the structure of Formula I had similar effects on vascular muscle.

PC3 = assay: Effect of OHOD on cancer cells in culture (Table 2); type: cell-based, human; set-up: key to Anti-tumour effect: + [inhibition of growth]; ++ [total halt of growth]; +++ [total removal of tumour cells]; details: PC3, Prostate
Method: (§2) Also, a series of α-derivatives of cis-monounsaturated fatty acids were used to investigate their effectiveness in cancer treatment. Two types of experiment were performed. Firstly, the dependency of the anti-tumour effect on concentration was investigated. To perform these experiments, human lung cancer cells (A549) were cultivated in RPMI medium, supplemented with 10% foetal bovine […], 10 mM Hepes (pH 7.4), 2 mM glutamine, 2 g/l bicarbonate, 1 g/l glucose, 100 units/ml penicillin, 0.1 mg/ml streptomycin, 0.25 μg/ml Amphotericin B, at 37° C. and in the presence of 5% CO2. In a first experimental series, these cells were treated with various concentrations (0-400 μM) of OHOD and MOD11 and the number of cells was determined by flow cytometry (FIG. 3A). […] In a second series, the anti-tumour effectiveness on A549 lung cancer cells was investigated at a single concentration (150 μM) and a time of 48 hours (FIG. 3B). […] Obviously, among the previous molecules, some lacked both modifications on the α-carbon and the double bond in cis configuration (EO, HDO, ODO) and had no therapeutic effect.
(§3) In a second experimental series, designed to discover whether these molecules are effective in treatment of different types of tumours, the effect of OHOD at various concentrations on human cells of different types of cancer was studied. These experiments were performed as described before, except that the M220 and HT-29 cell lines were cultured in DMEM medium and the MDA-MB-231 line was incubated in Leibowitz L-15 medium supplemented with 15% foetal bovine […]. […] Where the nature of the tumour process requires, application can be topical (use on the skin of active products for the treatment of melanoma and other cutaneous abnormalities of cancerous nature), which can be considered as cosmetic treatments when attempts are made to correct aesthetic defects.

HL-60 = assay: as above; type: cell-based, human; set-up: key to Anti-tumour effect: + [inhibition of growth]; ++ [total halt of growth]; +++ [total removal of tumour cells]; details: HL-60, Myel-Leukaemia
Method: as §2, §3

C-6 = assay: as above; type: cell-based, human; set-up: key to Anti-tumour effect: + [inhibition of growth]; ++ [total halt of growth]; +++ [total removal of tumour cells]; details: C-6, Glio-Brain
Method: as §2, §3

cadherin = assay: Cadherin levels in A549 cells (antibody, confocal microscopy); type: cell-based, human; details: 50 μM OHOD (48 h)
Method: FIG. 4. Cancer cells (A549) were incubated in the absence (FIG. 4A) and presence (FIG. 4B) of OHOD ([…], 48 h). Then they were fixed, incubated in the presence of an antibody against cadherin and were observed by confocal microscopy. Treatments with 50 μM OHOD (48 h) induced an increase of 73.6±5.4% in the levels of this protein. In treatments with the fatty acids of the invention, a significant increase in cadherin levels was observed.
as §1

CCCCCCCC/C=C\CCCCCCC(O)C(=O)O (stereo not drawn) [OHOD, α-Hydroxy-cis-Δ9-octadecenoic]
invasive capacity (number of invasive cells) (lung cancer cells (A549)): lower invasive capacity
contractile response induced by noradrenalin (NA) (aortas of SHR rats): much higher
Anti-tumour effect (PC3): +++
Mechanism of action (PC3): P A
Anti-tumour effect (HL-60): +++
Mechanism of action (HL-60): P D A
Anti-tumour effect (C-6): +++
Mechanism of action (C-6): P D
increase in the levels of cadherin (cadherin): 73.6±5.4%

Source: patent US9730906B2, “α-derivatives of cis-monounsaturated fatty acids for use as medicines” (UNIVERSITAT DE LES ILLES BALEARS, priority 2008, dated 2017)
